Data as given in patent US20260209208A1, “PHENYL-PYRAZOLE CARBOXAMIDE COMPOUNDS” (Acrivon Therapeutics, Inc., priority 2022, published 2026).

Experiments:
[1] = molecular target: T1, recombinant human PMYT-1 (Myt1 kinase) (Homo sapiens, UniProt Q99640); test: LanthaScreen Europium (Eu) Kinase Binding Assay for Myt1 kinase; conditions: TR-FRET tracer 178 displacement, GST-tagged full length PMYT-1, 60 min, room temperature; mean IC50; read-out: LANTHA Kinase Binding for PMyt1
T1 construct: full length PMYT-1 was expressed by baculovirus in insect cells using a N-terminal GST tag; purchased Invitrogen A30984; host or cells: insect cells (baculovirus)
T1 sequence (Q99640 1-499): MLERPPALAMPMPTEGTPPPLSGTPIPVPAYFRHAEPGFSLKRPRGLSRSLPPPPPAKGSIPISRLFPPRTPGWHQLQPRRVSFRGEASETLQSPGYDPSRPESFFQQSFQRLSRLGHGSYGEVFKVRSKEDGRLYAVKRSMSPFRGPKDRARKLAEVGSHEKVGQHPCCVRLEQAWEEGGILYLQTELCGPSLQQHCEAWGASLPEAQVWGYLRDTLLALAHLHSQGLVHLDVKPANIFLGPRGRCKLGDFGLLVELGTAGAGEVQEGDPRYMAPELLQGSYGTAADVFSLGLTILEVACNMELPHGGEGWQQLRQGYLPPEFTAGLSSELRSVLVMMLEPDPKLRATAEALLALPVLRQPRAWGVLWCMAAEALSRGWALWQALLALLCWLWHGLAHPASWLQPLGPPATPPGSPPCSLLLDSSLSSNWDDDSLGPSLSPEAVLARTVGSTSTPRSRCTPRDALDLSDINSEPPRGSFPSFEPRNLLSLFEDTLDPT
Excerpt: We used a LanthaScreen Europium (Eu) Kinase Binding Assay to determine the binding of provided compounds to Myt1 kinase. The assay utilizes an Alexa Fluor 647-labeled ATP competitive kinase tracer that binds to the ATP binding site of a GST-tagged Myt1 kinase, while a europium (Eu) labeled antibody binds to the GST tag. The proximity of fluorescently labeled kinase tracer and europium (Eu) donor fluorophore antibody leads to fluorescence resonance energy transfer (FRET) to the fluorescence label (acceptor) upon excitation of the Eu (donor). Displacement of tracer from the ATP-binding site by a test compound disturbs the proximity between both labels thus lowering the FRET.
This time resolved-FRET binding assay was performed in white 384-well low volume plates (Greiner, cat #784075), at room temperature in kinase buffer A (KBA; Invitrogen cat # PV3189), consisting of 50 mM HEPES-NaOH (pH 7.5), 0.01% Brij-35, 10 mM MgCl2, and 1 mM EGTA. 5 μl of compound (diluted in reaction buffer, to 1% DMSO) were added to various wells in the plate, followed by 5 μl each of recombinant human PMYT-1 (full length PMYT-1 was expressed by baculovirus in insect cells using a N-terminal GST tag (MW: 80.8 kDa) (Invitrogen cat #A30984) and LanthaScreen Eu-anti-GST antibody (Invitrogen, cat #PV5594). After this, 5 μl of kinase tracer 178 (Invitrogen, cat #PV5593) was added to the plate and the plate was incubated for 60 minutes at room temperature. The final assay conditions in each well were: 3 nM tracer 178, 2.5 nM PMYT-1 and 1 nM Eu-labeled antibody in total assay volume of 15 μl. An Envision 2104 (Perkin-Elmer) Plate Reader with the following time-resolve fluorescence setting was used for performing LanthaScreen kinase binding assay. • Excitation 320 nm (30 nm bandpass) • Kinase Tracer Emission 665 nm (10 nm bandpass) • LanthaScreen Eu-anti-Tag Antibody Emission 615 nm (10 nm bandpass) • Dichroic Mirror Instrument dependent • Delay Time 100 μs • Integration Time 200 μs
To calculate the emission ratio, the acceptor/tracer emission ([…]) was divided by the antibody/donor emission ([…]) and the average of duplicate measurement was used for calculations. Data plotting, analysis of binding, and curve fitting was done using Excel add-in XLfit version 5.5.0.5 (IDBS, Guildford, United Kingdom).

Myt1 Kinase = molecular target: T2, Myt1 Kinase (Homo sapiens, UniProt Q99640); test: AlphaLISA SureFire Ultra Human Phospho-CDK1 (Thr14) target engagement assay in DAOY cells; format: cell-based; conditions: 4 h incubation, Cdk1 phosphorylated on threonine 14, read-out: TE Myt1 Kinase (AlphaLISA)
T2 construct: endogenous in cells; host or cells: DAOY medulloblastoma cells (ATCC)
T2 sequence (Q99640 1-499): T1 sequence (Q99640 1-499)
Description: The following cellular assay was used to determine the extent to which the compounds disclosed herein inhibit phosphorylation of CDK1 at Thr 14.
DAOY medulloblastoma cell line (ATCC) was cultured in Minimum Essential Medium Eagle supplemented with 10% fetal calf serum (Sigma), 1% Penicillin-Streptomycin and 10 mM HEPES buffer (HyClone). Cell cultures were kept in a humidified incubator at 37° C. and 5% CO2. Cells were routinely tested for Mycoplasma contamination.
For target engagement assessment, quantification of Cdk1 phosphorylated on threonine 14 was detected using the AlphaLISA® SureFire® Ultra™ Human Phospho-CDK1 (Thr14) assay (Perkin Elmer). DAOY cells were seeded into tissue culture 96-well plates (VWR) to a density of 10,000 cells per well. Twenty-four hours post-seeding cells were incubated for 4 h with test compounds at concentrations ranging from 7 to 5000 nM. Cells were washed with PBS and lysed in 50 μl AlphaLISA® lysis buffer before freezing at −80° C. Ten μl of the lysate was transferred to 384 well plates and incubated with AlphaLISA® donor and acceptor beads according to the manufacturer's instructions. Dose response curves and EC50 values were calculated and visualized using GraphPad Prism version 9.

IC50 [1] [nM] | EC50 (Myt1 Kinase) [nM] | SMILES
100 to 250 | 500 to 1000 | Cc1ccc(O)cc1-n1nc(-c2ccccc2)c(C(N)=O)c1N [Compound 1, 5-amino-1-(5-hydroxy-2-methylphenyl)-3-phenyl-1H-pyrazole-4-carboxamide]
100 to 250 | > 1000 | Cc1ccc(O)cc1-n1nc(-c2ccc(Cl)cc2)c(C(N)=O)c1N [Compound 4, 5-amino-3-(4-chlorophenyl)-1-(5-hydroxy-2-methylphenyl)-1H-pyrazole-4-carboxamide]
10 to 100 |  | Cc1cccc(-c2nn(-c3c(C)ccc(O)c3C)c(N)c2C(N)=O)c1 [Compound 63]
> 250 |  | Cc1ccc(O)c(C)c1-n1nc(-c2ccccc2Cl)c(C(N)=O)c1N [Compound 62]
10 to 100 | 250 to 500 | Cc1ccc(O)c(C)c1-n1nc(-c2coc(Br)c2)c(C(N)=O)c1N [Compound 78, 5-amino-3-(5-bromo-3-furyl)-1-(3-hydroxy-2,6-xylyl)-4-pyrazolecarboxamide]
10 to 100 | > 1000 | Cc1ccc2[nH]ncc2c1-n1nc(-c2cc3ccccc3o2)c(C(N)=O)c1N [Compound 77, 5-amino-3-(1-benzofuran-2-yl)-1-(5-methyl-1H-indazol-4-yl)-4-pyrazolecarboxamide]
> 250 |  | COc1ccc(S(=O)(=O)O)cc1-c1nn(-c2c(C)ccc(O)c2C)c(N)c1C(N)=O [Compound 60]
> 250 |  | Cc1ccccc1-c1nn(-c2c(C)ccc(O)c2C)c(N)c1C(N)=O [Compound 66]
≤ 10 | 500 to 1000 | Cc1ccc(O)c(C)c1-n1nc(-c2ncc[nH]2)c(C(N)=O)c1N [Compound 125]
10 to 100 | 500 to 1000 | NC(=O)c1c(-c2cc3ccccc3o2)nn(-c2c(Cl)ccc(O)c2Cl)c1N [Compound 93, 5-amino-3-(1-benzofuran-2-yl)-1-(2,6-dichloro-3-hydroxyphenyl)-4-pyrazolecarboxamide]
10 to 100 | 500 to 1000 | NC(=O)c1c(-c2cc(Br)co2)nn(-c2c(Cl)ccc(O)c2Cl)c1N [Compound 92, 5-amino-3-(4-bromo-2-furyl)-1-(2,6-dichloro-3-hydroxyphenyl)-4-pyrazolecarboxamide]
10 to 100 | > 1000 | Cc1ccc2[nH]ncc2c1-n1nc(-c2ccco2)c(C(N)=O)c1N [Compound 84, 5-amino-3-(2-furyl)-1-(5-methyl-1H-indazol-4-yl)-4-pyrazolecarboxamide]
> 250 |  | COc1ccc(-c2nn(-c3cc(O)ccc3C)c(N)c2C(N)=O)cc1 [Compound 3, 5-amino-1-(5-hydroxy-2-methylphenyl)-3-(4-methoxyphenyl)-1H-pyrazole-4-carboxamide]
10 to 100 | > 1000 | Cc1cc(Cl)c(O)c(C)c1-n1nc(-c2ccc(Br)o2)c(C(N)=O)c1N [Compound 74, 5-amino-3-(5-bromo-2-furyl)-1-(4-chloro-3-hydroxy-2,6-xylyl)-4-pyrazolecarboxamide]
10 to 100 |  | Cc1ccc(O)c(C)c1-n1nc(-c2cnn(C)c2)c(C(N)=O)c1N [Compound 121]
10 to 100 | > 1000 | Cc1ccc(O)c(C)c1-n1nc(-c2ccco2)c(C(N)=O)c1N (single isomer, unassigned) [Compound 105, 5-amino-3-(furan-2-yl)-1-(3-hydroxy-2,6-dimethylphenyl)-1H-pyrazole-4-carboxamide]

IC50 [1] [nM] | EC50 (Myt1 Kinase) [nM] | SMILES
100 to 250 |  | Cc1ccc(O)cc1-n1nc(-c2ccc(F)cc2)c(C(N)=O)c1N [Compound 2, 5-amino-3-(4-fluorophenyl)-1-(5-hydroxy-2-methylphenyl)-1H-pyrazole-4-carboxamide]
10 to 100 | > 1000 | Cc1ccc(O)c(C)c1-n1nc(-c2cccc(F)c2)c(C(N)=O)c1N [Compound 61]
10 to 100 | > 1000 | Cc1ccc(O)c(C)c1-n1nc(-c2ccoc2)c(C(N)=O)c1N [Compound 76, 5-amino-3-(3-furyl)-1-(3-hydroxy-2,6-xylyl)-4-pyrazolecarboxamide]
> 250 |  | Cc1ccc(O)c(C)c1-n1nc(-c2cc3ccccc3o2)c(C(N)=O)c1N (single isomer, unassigned) [Compound 109, 5-amino-3-(benzofuran-2-yl)-1-(3-hydroxy-2,6-dimethylphenyl)-1H-pyrazole-4-carboxamide]
> 250 | > 1000 | Cc1ccc(O)cc1-n1nc(-c2cccc(Br)c2)c(C(N)=O)c1N [Compound 6, 5-amino-3-(3-bromophenyl)-1-(5-hydroxy-2-methylphenyl)-1H-pyrazole-4-carboxamide]
10 to 100 | > 1000 | Cc1ccc2[nH]ncc2c1-n1nc(-c2ccc(Br)o2)c(C(N)=O)c1N [Compound 85, 5-amino-3-(5-bromo-2-furyl)-1-(5-methyl-1H-indazol-4-yl)-4-pyrazolecarboxamide]
10 to 100 |  | Cc1ccc2[nH]nc(C)c2c1-n1nc(-c2ccco2)c(C(N)=O)c1N (single isomer, unassigned) [Compound 103, 5-amino-1-(3,5-dimethyl-1H-indazol-4-yl)-3-(furan-2-yl)-1H-pyrazole-4-carboxamide]
> 250 |  | Cc1ccc(O)cc1-n1nc(-c2cccc(-c3ccncc3)c2)c(C(N)=O)c1N [Compound 7, 5-amino-1-(5-hydroxy-2-methylphenyl)-3-[3-(pyridin-4-yl)phenyl]-1H-pyrazole-4-carboxamide]
≤ 10 | 250 to 500 | Cc1ccc(O)c(C)c1-n1nc(-c2ccsc2)c(C(N)=O)c1N [Compound 120]
100 to 250 |  | Cc1ccc(O)c(C)c1-n1nc(-c2cc(Br)co2)c(C(N)=O)c1N (single isomer, unassigned) [Compound 110, 5-amino-3-(4-bromofuran-2-yl)-1-(3-hydroxy-2,6-dimethylphenyl)-1H-pyrazole-4-carboxamide]
> 250 |  | Cc1ccc2[nH]nc(C)c2c1-n1nc(-c2ccco2)c(C(N)=O)c1N (atropisomer, axis not shown) [Compound 116, 5-amino-1-(3,5-dimethyl-1H-indazol-4-yl)-3-(furan-2-yl)-1H-pyrazole-4-carboxamide]
10 to 100 | > 1000 | Cc1ccc(O)c(C)c1-n1nc(-c2nccn2C)c(C(N)=O)c1N [Compound 124]
> 250 |  | Cc1ccc(O)cc1-n1nc(-c2cccc(C3CCNCC3)c2)c(C(N)=O)c1N [Compound 8, 5-amino-1-(5-hydroxy-2-methylphenyl)-3-[3-(piperidin-4-yl)phenyl]-1H-pyrazole-4-carboxamide]
> 250 |  | COc1ccccc1-c1nn(-c2c(C)ccc(O)c2C)c(N)c1C(N)=O [Compound 64]
10 to 100 |  | Cc1ccc(O)c(C)c1-n1nc(-c2ccccc2F)c(C(N)=O)c1N [Compound 65]
